Source: ChEMBL document CHEMBL1137644, “Polymyxin B induces lysis of marine pseudoalteromonads” (Antimicrob Agents Chemother, 2007)
The source made the active and inactive calls. The calls are words filed in the database; no cut-off is given here. Bridge positions count the residues as written; N and C are the ends. Square brackets hold non-standard residues; d marks the D form. Peptide text beside a SMILES is read from it. Dab = NCC[C@H](N)C(=O)O

What was measured:
Format in all cases: functional, organism-based
Pseudoalteromonas [1] = assay: Induction of cell lysis in Pseudoalteromonas ER72M2 assessed as outer membrane permeability at 50 ug/ml
Pseudoalteromonas [2] = assay: Induction of cell lysis in Pseudoalteromonas ER72M2 assessed as cytoplasmic membrane integrity at 50 ug/ml
Pseudoalteromonas [3] = assay: Antimicrobial activity against Pseudoalteromonas ER72M2 up to 50 ug/ml
Pseudoalteromonas [4] = assay: Induction of cell lysis in Pseudoalteromonas ER72M2 assessed as accumulation of tetraphenylphonium treated at 50 ug/ml after 30 mins addition of Mg2+ and Ca2+
Pseudoalteromonas [5] = assay: Induction of cell lysis in Pseudoalteromonas A28 assessed as decrease in culture turbidity at 50 ug/ml
Pseudoalteromonas [6] = assay: Induction of cell lysis in Pseudoalteromonas ER72M2 assessed as depolarization of cytoplasmic membrane treated at 50 ug/ml after 30 mins addition of Mg2+ and Ca2+
Pseudoalteromonas [7] = assay: Antimicrobial activity against Pseudoalteromonas ER72M2 after 50 hrs in presence of Ca2+ cation by epsilometer agar diffusion method
Pseudoalteromonas [8] = assay: Induction of cell lysis in Pseudoalteromonas ER72M2 assessed as dipolarization of cytoplasmic membrane treated at 50 ug/ml after 30 mins incubation
Pseudoalteromonas [9] = assay: Induction of cell lysis in Pseudoalteromonas ER72M2 assessed as decrease in culture turbidity treated at 50 ug/ml after 30 mins addition of Ca2+
Pseudoalteromonas [10] = assay: Induction of cell lysis in Pseudoalteromonas ER72M2 assessed as decipation of K+ gradient on cytoplasmic membrane treated at 50 ug/ml after 30 mins addition of Mg2+ and Ca2+
Pseudoalteromonas [11] = assay: Induction of cell lysis in Pseudoalteromonas ER72M2 assessed as accumulation of phenyldicarbaundecaborane treated at 50 ug/ml after 30 mins incubation
Pseudoalteromonas [12] = assay: Induction of cell lysis in Pseudoalteromonas ER72M2 assessed as complete lysis treated at 50 ug/ml after 30 mins addition of Ca2+, Mg2+
Pseudoalteromonas [13] = assay: Induction of cell lysis in Pseudoalteromonas ER72M2 assessed as increase in accumulation of tetraphenylphonium at 2 ug/ml
Pseudoalteromonas [14] = assay: Induction of cell lysis in Pseudoalteromonas ER72M2 assessed as shrinkage of intracellular volume after 25 mins in presence of divalent cation by light microscopy
Pseudoalteromonas [15] = assay: Induction of cell lysis in Pseudoalteromonas ER72M2 assessed as decrease in culture turbidity at 2 ug/ml in presence of nigericin
Escherichia coli = assay: Induction of cell lysis in Escherichia coli HMS174 assessed as decrease in culture turbidity at 50 ug/ml
Pseudoalteromonas [16] = assay: Induction of cell lysis in Pseudoalteromonas ER72M2 assessed as increase in extracellular concentration of tetraphenylphonium treated at 50 ug/ml after 30 mins incubation
Pseudoalteromonas [17] = assay: Induction of cell lysis in Pseudoalteromonas ER72M2 assessed as permeability across outer membrane at 2 ug/ml
Pseudoalteromonas [18] = assay: Induction of cell lysis in Pseudoalteromonas ER72M2 assessed as leakage of intracellular K+ at 3 ug/ml in presence of gramicidin D
[19] = test system: Pseudoalteromonas espejiana; assay: Induction of cell lysis in Pseudoalteromonas espejiana BAL31 assessed as decrease in culture turbidity at 50 ug/ml
Pseudoalteromonas [20] = assay: Induction of cell lysis in Pseudoalteromonas ER72M2 assessed as decrease in culture turbidity treated at 50 ug/ml after 30 mins addition of Mg2+
Pseudoalteromonas [21] = assay: Induction of cell lysis in Pseudoalteromonas ER72M2 assessed as depolarization of cytoplasmic membrane at 3 ug/ml in presence of gramicidin D
Pseudoalteromonas [22] = assay: Induction of cell lysis in Pseudoalteromonas ER72M2 assessed as decrease in culture turbidity at 2 ug/ml in presence of gramicidin D
Pseudoalteromonas [23] = assay: Induction of cell lysis in Pseudoalteromonas ER72M2 assessed as binding of phenyldicarbaundecaborane at 3 ug/ml in presence of gramicidin D
Pseudoalteromonas [24] = assay: Induction of cell lysis in gramicidin D-deplolarized Pseudoalteromonas ER72M2 assessed as decrease in culture turbidity at 2 ug/ml
Pseudoalteromonas [25] = assay: Induction of cell lysis in Pseudoalteromonas ER72M2 assessed as extracellular K+ concentration treated at 50 ug/ml after 30 mins addition of Mg2+ and Ca2+
Pseudoalteromonas [26] = assay: Induction of cell lysis in Pseudoalteromonas ER72M2 assessed as intense membrane alkalization treated at 50 ug/ml after 30 mins addition of Mg2+ and Ca2+
Pseudoalteromonas [27] = assay: Induction of cell lysis in Pseudoalteromonas ER72M2 assessed as voltage dissipation in presence of KCN
Pseudoalteromonas [28] = assay: Antimicrobial activity against Pseudoalteromonas ER72M2 assessed as after 50 hrs in presence of Mg2+ and Ca2+ by epsilometer agar diffusion method
Pseudoalteromonas [29] = assay: Antimicrobial activity against Pseudoalteromonas ER72M2 after 50 hrs by epsilometer agar diffusion method
Pseudoalteromonas [30] = assay: Induction of cell lysis in Pseudoalteromonas ER72M2 assessed as decrease in culture turbidity
Pseudoalteromonas [31] = assay: Induction of cell lysis in Pseudoalteromonas ER72M2 assessed as leakage of intracellular K+ treated at 50 ug/ml after 30 mins incubation
Pseudoalteromonas [32] = assay: Induction of cell lysis in Pseudoalteromonas ER72M2 at 10 ug/ml
Pseudoalteromonas [33] = assay: Induction of cell lysis in Pseudoalteromonas ER72M2 assessed as decrease in culture turbidity treated at 50 ug/ml after 30 mins addition of Ca2+, Mg2+
Pseudoalteromonas [34] = assay: Induction of cell lysis in Pseudoalteromonas ER72M2 assessed as increase in alkalization of membrane treated at 50 ug/ml after 30 mins incubation
Pseudoalteromonas [35] = assay: Induction of cell lysis in Pseudoalteromonas ER72M2 at 10 ug/ml in presence of arsenate
Pseudoalteromonas [36] = assay: Induction of cell lysis in Pseudoalteromonas ER72M2 assessed as accumulation of phenyldicarbaundecaborane treated at 50 ug/ml after 30 mins addition of Mg2+ and Ca2+
Pseudoalteromonas [37] = assay: Induction of cell lysis in Pseudoalteromonas ER72M2 assessed as increase in accumulation of phenyldicarbaundecaborane at 2 ug/ml
Pseudoalteromonas [38] = assay: Antimicrobial activity against Pseudoalteromonas ER72M2 after 50 hrs in presence of Mg2+ cation by epsilometer agar diffusion method

CC(C)C[C@@H]1NC(=O)[C@@H](Cc2ccccc2)NC(=O)[C@H](CCN)NC(=O)[C@@H](NC(=O)[C@H](CCN)NC(=O)[C@@H](N)[C@@H](C)O)CCNC(=O)[C@H]([C@@H](C)O)NC(=O)[C@H](CCN)NC(=O)[C@H](CCN)NC1=O (H-T[Dab][Dab][Dab][dF]L[Dab][Dab]T; lactam 3-C)
Activity (Pseudoalteromonas [1]): Active
Activity (Pseudoalteromonas [2]): inactive
Activity (Pseudoalteromonas [3]): inactive

POLYMYXIN B
Activity (Pseudoalteromonas [1]): Active
Activity (Pseudoalteromonas [4]): Active
Activity (Pseudoalteromonas [5]): Active
Activity (Pseudoalteromonas [6]): Active
MIC (Pseudoalteromonas [7]): 0.11 µg/mL
Activity (Pseudoalteromonas [8]): Active
Activity (Pseudoalteromonas [9]): Active
Activity (Pseudoalteromonas [10]): Active
Activity (Pseudoalteromonas [11]): Active
Activity (Pseudoalteromonas [12]): inactive
Activity (Pseudoalteromonas [13]): Active
Activity (Pseudoalteromonas [14]): Active
Activity (Pseudoalteromonas [15]): Active
Activity (Escherichia coli): Active
Activity (Pseudoalteromonas [16]): Active
Activity (Pseudoalteromonas [17]): inactive
Activity (Pseudoalteromonas [18]): Active
Activity [19]: Active
Activity (Pseudoalteromonas [20]): Active
Activity (Pseudoalteromonas [21]): Active
Activity (Pseudoalteromonas [22]): inactive
Activity (Pseudoalteromonas [23]): Active
Activity (Pseudoalteromonas [24]): inactive
Activity (Pseudoalteromonas [25]): Active
Activity (Pseudoalteromonas [26]): Active
Activity (Pseudoalteromonas [27]): Active
MIC (Pseudoalteromonas [28]): 0.42 µg/mL
MIC (Pseudoalteromonas [29]): 0.33 µg/mL
Activity (Pseudoalteromonas [30]): Dose-dependent effect
Activity (Pseudoalteromonas [31]): Active
Activity (Pseudoalteromonas [32]): Active
Activity (Pseudoalteromonas [33]): inactive
Activity (Pseudoalteromonas [34]): Active
Activity (Pseudoalteromonas [35]): Active
Activity (Pseudoalteromonas [36]): Active
Activity (Pseudoalteromonas [37]): Active
MIC (Pseudoalteromonas [38]): 0.33 µg/mL
